The values below come from patent US10975056B2 (GlaxoSmithKline Intellectual Property Development Limited, priority 2016, dated 2021).

Each structure is given as a SMILES string. Where “and” joins values, the source holds several entries; their conditions need not be identical. Equal entries are not always repeated. Structures can show the parent of a compound that is named as a salt. Where two headings read alike, the source gives them in different places.

Test [1] addresses DNMT1 (Homo sapiens, UniProt P26358). The experiment in a line: DNMT1 biochemical activity, breaklight assay and/or SPA assay.
Test [2] concerns erythroid progenitor cells (EPCs). Put plainly: Fetal hemoglobin (HbF) ELISA in day 7 erythroid progenitor cells.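 As to all read-outs here: for fetal hemoglobin induction normalized to vehicle-treated cells.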 The following applies: HbF ELISA, day 7 EPCs, 5 days; for EC50: Homo sapiens, Erythroid progenitor cell, read-out: EPC ELISA (pEC50 category) (converted). Type of test: cell-based, human. Summed up:
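CD34+-derived EPCs, 1,000 cells/well, rhEPO 3 U/mL; Compound A 22-pt series, […]; 5 d, 37° C, 5% CO2. Freeze-thaw lysis, anti-HbF capture + HRP anti-HbF, TMB, OD450. Normalized to DMSO wells.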

Where [3] appears, read: binned activity in either the breaklight or the SPA assay.
[4] abbreviates: binned activity in either the breaklight or the SPA assay, read-out: DNMT1 BioChemical (pIC50 category) (converted).
Where [5] appears, read: breaklight assay and/or SPA assay, repeated experimental runs, read-out: average pIC50 against DNMT1 (converted).

DNMT1, sequence (P26358 whole entry, looked up): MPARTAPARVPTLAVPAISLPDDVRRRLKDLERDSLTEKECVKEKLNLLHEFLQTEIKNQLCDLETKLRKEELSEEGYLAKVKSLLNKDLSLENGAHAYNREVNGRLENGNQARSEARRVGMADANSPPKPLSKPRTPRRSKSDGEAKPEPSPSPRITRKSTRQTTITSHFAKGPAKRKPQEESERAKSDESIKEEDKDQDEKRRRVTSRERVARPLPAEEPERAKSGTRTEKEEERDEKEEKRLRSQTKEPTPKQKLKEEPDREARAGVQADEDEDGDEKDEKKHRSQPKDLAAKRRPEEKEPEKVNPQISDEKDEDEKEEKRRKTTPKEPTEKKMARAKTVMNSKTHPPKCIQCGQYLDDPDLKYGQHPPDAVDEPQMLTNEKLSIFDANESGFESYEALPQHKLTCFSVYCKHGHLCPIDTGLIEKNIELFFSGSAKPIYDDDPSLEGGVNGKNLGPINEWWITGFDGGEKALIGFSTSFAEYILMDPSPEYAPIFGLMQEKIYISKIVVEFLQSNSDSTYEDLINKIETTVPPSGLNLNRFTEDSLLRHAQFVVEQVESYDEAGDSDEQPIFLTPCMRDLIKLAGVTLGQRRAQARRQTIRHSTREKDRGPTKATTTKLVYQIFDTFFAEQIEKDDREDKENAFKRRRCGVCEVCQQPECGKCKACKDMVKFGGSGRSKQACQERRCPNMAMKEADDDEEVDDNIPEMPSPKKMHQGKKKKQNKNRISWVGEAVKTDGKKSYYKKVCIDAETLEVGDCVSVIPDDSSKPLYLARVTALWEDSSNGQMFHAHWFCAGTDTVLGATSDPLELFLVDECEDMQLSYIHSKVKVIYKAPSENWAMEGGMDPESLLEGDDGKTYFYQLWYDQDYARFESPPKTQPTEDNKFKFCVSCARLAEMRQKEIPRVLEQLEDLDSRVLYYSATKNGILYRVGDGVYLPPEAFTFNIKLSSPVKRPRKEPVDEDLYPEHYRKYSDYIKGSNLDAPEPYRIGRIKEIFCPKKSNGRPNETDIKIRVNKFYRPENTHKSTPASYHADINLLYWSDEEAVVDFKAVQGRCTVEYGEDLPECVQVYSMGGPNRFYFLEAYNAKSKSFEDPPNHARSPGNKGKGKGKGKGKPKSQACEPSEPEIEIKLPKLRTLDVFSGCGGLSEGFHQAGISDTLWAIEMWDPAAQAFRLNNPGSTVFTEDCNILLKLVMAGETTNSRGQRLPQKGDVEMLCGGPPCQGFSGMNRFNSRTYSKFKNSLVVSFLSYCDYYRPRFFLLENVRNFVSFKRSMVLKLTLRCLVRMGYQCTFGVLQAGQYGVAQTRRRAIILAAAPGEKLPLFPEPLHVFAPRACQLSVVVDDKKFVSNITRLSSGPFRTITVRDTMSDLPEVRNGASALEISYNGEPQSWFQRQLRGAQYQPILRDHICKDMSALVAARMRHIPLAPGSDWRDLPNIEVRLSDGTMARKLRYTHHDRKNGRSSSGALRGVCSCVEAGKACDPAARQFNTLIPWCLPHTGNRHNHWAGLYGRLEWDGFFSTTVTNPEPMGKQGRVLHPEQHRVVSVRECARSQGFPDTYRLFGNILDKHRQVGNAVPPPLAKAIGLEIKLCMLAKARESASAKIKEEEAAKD

For `CCc1c(C#N)c(SC(C(N)=O)c2ccccc2)nc(N2CC[C@@](F)(CN)C2)c1C#N` (stereo partly drawn) [Example 632, 2-((6-((R)-3-(aminomethyl)-3-fluoropyrrolidin-1-yl)-3,5-dicyano-4-ethylpyridin-2-yl)thio)-2-phenylacetamide], the “DNMT1 BioChemical (pIC50 category)” value in test [1] (setting [3]) is listed as “D (Category D: ≥6.5)”. Further, the EC50 in test [2] is 1 to 31.6 µM.

Take `CCc1c(C#N)c(SCc2ccc(N(C)S(C)(=O)=O)cc2)nc(N(C)CCN)c1C#N` [Example 484, N-(4-(((6-((2-aminoethyl)(methyl)amino)-3,5-dicyano-4-ethylpyridin-2-yl)thio)methyl)phenyl)-N-methylmethanesulfonamide]: the “DNMT1 BioChemical (pIC50 category)” value in test [1] (setting [3]) is reported as “D (Category D: ≥6.5)”. Besides, in test [2], the EC50 is less than 0.316 µM.

Turning to `CCc1c(C#N)c(SCc2ccc(-c3ccncc3)cc2)nc(N2CCC(N3CCCC3)CC2)c1C#N` [Example 338, 4-Ethyl-2-((4-(pyridin-4-yl)benzyl)thio)-6-(4-(pyrrolidin-1-yl)piperidin-1-yl)pyridine-3,5-dicarbonitrile], in test [1] (setting [4]), the IC50 is 0.316 to 1 µM. The EC50 in test [2] was greater than 31.6 µM.

Take `CCc1c(C#N)c(SCc2ccc(CNCCO)cc2)nc(N2CCCN(C)CC2)c1C#N` [Example 90, 4-Ethyl-2-((4-(((2-hydroxyethyl)amino)methyl)benzyl)thio)-6-(4-methyl-1,4-diazepan-1-yl)pyridine-3,5-dicarbonitrile]: the IC50 in test [1] (setting [4]) is 0.316 to 1 µM. In test [2], the EC50 was greater than 31.6 µM.

Turning to `CCc1c(C#N)c(SC(C(N)=O)c2ccsc2)nc(N2CCNCC2)c1C#N` (stereo not drawn) [Example 263, 2-(3,5-Dicyano-4-ethyl-6-(piperazin-1-yl)pyridin-2-ylthio)-2-(thiophen-3-yl)acetamide], the IC50 in test [1] (setting [4]) is 0.316 to 1 µM. For the same compound, the EC50 in test [2] was 0.316 to 1 µM.

Take `CC1CN(c2nc(SC(C(N)=O)c3ccccc3)c(C#N)c(C3CC3)c2C#N)CCN1` (stereo not drawn) [Example 19, 2-((3,5-Dicyano-4-cyclopropyl-6-(3-methylpiperazin-1-yl)pyridin-2-yl)thio)-2-phenylacetamide]: the IC50 in test [1] (setting [4]) is 0.316 to 1 µM. Further, in test [2], the EC50 is less than 0.316 µM.

Take `CCc1c(C#N)c(SC(C(N)=O)c2ccccc2)nc(N2CCOC(CN(C)C)C2)c1C#N` (stereo not drawn) [Example 558, 2-((3,5-dicyano-6-(2-((dimethylamino)methyl)morpholino)-4-ethylpyridin-2-yl)thio)-2-phenylacetamide]: the “DNMT1 BioChemical (pIC50 category)” value in test [1] (setting [3]) was “D (Category D: ≥6.5)”. Besides, the EC50 in test [2] was less than 0.316 µM.

In the case of `CSc1c(C#N)c(SC(C(N)=O)c2ccccc2)nc(N2CCCN(C)CC2)c1C#N` (stereo not drawn) [Example 202, 2-((3,5-Dicyano-6-(4-methyl-1,4-diazepan-1-yl)-4-(methylthio)pyridin-2-yl)thio)-2-phenylacetamide], the IC50 in test [1] (setting [4]) is 0.316 to 1 µM. For the same compound, the EC50 in test [2] was 0.316 to 1 µM.

For the compound `CCc1c(C#N)c(SC(C(N)=O)c2ccccc2)nc(N2CC[C@H](N)C2)c1C#N` (stereo partly drawn) [Example 528, 2-((6-((S)-3-aminopyrrolidin-1-yl)-3,5-dicyano-4-ethylpyridin-2-yl)thio)-2-phenylacetamide], the “DNMT1 BioChemical (pIC50 category)” value in test [1] (setting [3]) was “D (Category D: ≥6.5)”. In addition, the EC50 in test [2] was less than 0.316 µM.

Take `CCc1c(C#N)c(SC(C(N)=O)c2ccccc2)nc(N2CC(NC(=O)CO)C2)c1C#N` (stereo not drawn) [Example 288, N-(1-(6-((2-Amino-2-oxo-1-phenylethyl)thio)-3,5-dicyano-4-ethylpyridin-2-yl)azetidin-3-yl)-2-hydroxyacetamide]: the “DNMT1 BioChemical (pIC50 category)” value in test [1] (setting [3]) is “D (Category D: ≥6.5)”. Further, the EC50 in test [2] was 1 to 31.6 µM.

With `CCc1c(C#N)c(SC(C(N)=O)c2ccccc2)nc(N2CC[C@@H](O)C2)c1C#N` (stereo partly drawn) [Example 160, 2-((3,5-Dicyano-4-ethyl-6-((R)-3-hydroxypyrrolidin-1-yl)pyridin-2-yl)thio)-2-phenylacetamide], in test [1] (setting [4]), the IC50 was 1 to 31.6 µM. Further, the EC50 in test [2] was 1 to 31.6 µM.

`CCc1c(C#N)c(SC(C(N)=O)c2ccccc2)nc(N(C)CCCN)c1C#N` (stereo not drawn) [Example 670, 2-((6-((3-aminopropyl)(methyl)amino)-3,5-dicyano-4-ethylpyridin-2-yl)thio)-2-phenylacetamide hydrochloride]: the “DNMT1 BioChemical (pIC50 category)” value in test [1] (setting [3]) is listed as “D (Category D: ≥6.5)”. Also, the EC50 in test [2] was less than 0.316 µM.

Regarding `CCc1c(C#N)c(SCc2ccc(CNC(=O)CO)cc2)nc(N(C)CC(N)=O)c1C#N` [Example 371], the IC50 in test [1] (setting [4]) was 0.316 to 1 µM. Besides, the EC50 in test [2] is 1 to 31.6 µM.

For the compound `CCc1c(C#N)c(S[C@@H](C(N)=O)c2ccccc2)nc(N2CC[C@@H](NC(=O)OC(C)(C)C)[C@@H](O)C2)c1C#N` [Example 533, tert-butyl ((3S,4R)-1-(6-(((R)-2-amino-2-oxo-1-phenylethyl)thio)-3,5-dicyano-4-ethylpyridin-2-yl)-3-hydroxypiperidin-4-yl)carbamate], the “DNMT1 BioChemical (pIC50 category)” value in test [1] (setting [3]) is reported as “D (Category D: ≥6.5)”. Further, in test [2], the EC50 is less than 0.316 µM.

Regarding `CCc1c(C#N)c(SC(C(N)=O)c2ccccc2)nc(N2CCN(Cc3cnsc3)CC2)c1C#N` (stereo not drawn) [Example 197, 2-((3,5-Dicyano-4-ethyl-6-(4-(isothiazol-4-ylmethyl)piperazin-1-yl)pyridin-2-yl)thio)-2-phenylacetamide], the IC50 in test [1] (setting [4]) was 0.316 to 1 µM. Moreover, the EC50 in test [2] was 0.316 to 1 µM.

For `CCc1c(C#N)c(S[C@@H](C(N)=O)c2ccccc2)nc(N2CC[C@](O)(CN)C2)c1C#N` [Example 624, (R)-2-((6-((S)-3-(aminomethyl)-3-hydroxypyrrolidin-1-yl)-3,5-dicyano-4-ethylpyridin-2-yl)thio)-2-phenylacetamide], the “DNMT1 BioChemical (pIC50 category)” value in test [1] (setting [3]) is listed as “D (Category D: ≥6.5)”. For the same compound, in test [2], the “EPC ELISA (pEC50 category)” value is “B (Category B: 4.5 ≤ x < 6.0)”.

Consider `CCc1c(C#N)c(SC(C(N)=O)c2ccccc2)nc(N(C)CCN(CC)CC)c1C#N` (stereo not drawn) [Example 515, 2-((3,5-dicyano-6-((2-(diethylamino)ethyl)(methyl)amino)-4-ethylpyridin-2-yl)thio)-2-phenylacetamide], for which the “DNMT1 BioChemical (pIC50 category)” value in test [1] (setting [3]) is reported as “D (Category D: ≥6.5)”. The EC50 in test [2] is less than 0.316 µM.

`CCc1c(Cl)c(SC(C(N)=O)c2ccccc2)nc(N2CCCN(C)CC2)c1Cl` (stereo not drawn) [Example 165]: the IC50 is 0.316 to 1 µM in test [1] (setting [4]); 0.316 to 1 µM and 0.631 µM in test [1] (setting [5]). Moreover, the EC50 in test [2] was greater than 31.6 µM.

Regarding `CCc1c(C#N)c(S[C@@H](C(N)=O)c2ccccc2)nc(N2CC[C@H](O)C2)c1C#N` [Example 168, (R)-2-((3,5-Dicyano-4-ethyl-6-((S)-3-hydroxypyrrolidin-1-yl)pyridin-2-yl)thio)-2-phenylacetamide], the “DNMT1 BioChemical (pIC50 category)” value in test [1] (setting [3]) is “D (Category D: ≥6.5)”. Further, the “average pIC50 against DNMT1” value in test [1] (breaklight assay and/or SPA assay, repeated experimental runs) was greater than 6.5. Besides, in test [1] (setting [5]), the IC50 is 0.2 µM. Besides, in test [2], the EC50 was 0.316 to 1 µM.

Consider `CCc1c(C#N)c(SC(C(N)=O)c2ncccc2F)nc(N2CCC(N)CC2)c1C#N` (stereo not drawn) [Example 583, 2-((6-(4-aminopiperidin-1-yl)-3,5-dicyano-4-ethylpyridin-2-yl)thio)-2-(3-fluoropyridin-2-yl)acetamide], for which, in test [1] (setting [3]), the “DNMT1 BioChemical (pIC50 category)” value was “D (Category D: ≥6.5)”. For the same compound, the EC50 in test [2] was less than 0.316 µM.

Take `CCc1c(C#N)c(SC(C(N)=O)c2ccccc2)nc(N2CCC(NC)C2)c1C#N` (stereo not drawn) [Example 521, 2-((3,5-dicyano-4-ethyl-6-(3-(methylamino)pyrrolidin-1-yl)pyridin-2-yl)thio)-2-phenylacetamide]: in test [1] (setting [3]), the “DNMT1 BioChemical (pIC50 category)” value was “D (Category D: ≥6.5)”. In addition, the EC50 in test [2] was less than 0.316 µM.

For the compound `CCc1c(C#N)c(SCc2ccc(-n3ccnc3)cc2)nc(N2CCCN(C)CC2)c1C#N` [Example 294, 2-((4-(1H-Imidazol-1-yl)benzyl)thio)-4-ethyl-6-(4-methyl-1,4-diazepan-1-yl)pyridine-3,5-dicarbonitrile], in test [1] (setting [4]), the IC50 was 0.316 to 1 µM. For the same compound, the EC50 in test [2] was greater than 31.6 µM.

Turning to `CCc1c(C#N)c(SCc2ccc(N(C)S(C)(=O)=O)cc2)nc(N2CCC(NCC(C)(C)C)CC2)c1C#N` [Example 569, N-(4-(((3,5-dicyano-4-ethyl-6-(4-(neopentylamino)piperidin-1-yl)pyridin-2-yl)thio)methyl)phenyl)-N-methylmethanesulfonamide], in test [1] (setting [3]), the “DNMT1 BioChemical (pIC50 category)” value is reported as “D (Category D: ≥6.5)”. In addition, in test [2], the EC50 was less than 0.316 µM.

In the case of `CCc1c(C#N)c(SCc2ccc(NC(=O)CN)cc2)nc(N2CCCN(C)CC2)c1C#N` [Example 302, 2-Amino-N-(4-(((3,5-dicyano-4-ethyl-6-(4-methyl-1,4-diazepan-1-yl)pyridin-2-yl)thio)methyl)phenyl)acetamide], the IC50 in test [1] (setting [4]) was 0.316 to 1 µM. For the same compound, the EC50 in test [2] is greater than 31.6 µM.

Regarding `CN(CCCN)c1nc(SC(C(N)=O)c2ccccc2)c(C#N)c(C2CC2)c1C#N` (stereo not drawn) [Example 391, 2-((6-((3-Aminopropyl) (methyl)amino-3,5-dicyano-4-cyclopropylpyridin-2-yl)thio-2-phenylacetamide, Hydrochloride], the “DNMT1 BioChemical (pIC50 category)” value in test [1] (setting [3]) is “D (Category D: ≥6.5)”. Besides, the EC50 in test [2] was 1 to 31.6 µM.

Consider `N#Cc1c(SC(C(N)=O)c2ccccc2)nc(N2CCCC(NCC(=O)O)C2)c(C#N)c1C1CC1` (stereo not drawn) [Example 175, 2-((1-(6-((2-Amino-2-oxo-1-phenylethyl)thio)-3,5-dicyano-4-cyclopropvlpyridin-2-yl)piperidin-3-yl)amino)acetic acid], for which the IC50 in test [1] (setting [4]) was 0.316 to 1 µM. In addition, the EC50 in test [2] was greater than 31.6 µM.

Take `CCc1c(C#N)c(SCc2ccc(CNC3CCNC3=O)cc2)nc(N2CCCN(C)CC2)c1C#N` (stereo not drawn) [Example 385, 4-Ethyl-2-(4-methyl-1,4-diazepan-1-yl)-6-((4-(((2-oxopyrrolidin-3-yl)amino)methyl)benzyl)thio)pyridine-3,5-dicarbonitrile]: in test [1] (setting [4]), the IC50 is 0.316 to 1 µM. Besides, the EC50 in test [2] is greater than 31.6 µM.
